Measurements: patent publication US11192863B2, “Antiviral compounds and methods” (Biotron Limited, priority 2003, dated 2021)
Structures can show the parent of a compound that is named as a salt. Where two headings read alike, the source gives them in different places.

Legend:
[1] = target: Vpu protein (Human immunodeficiency virus type 1 group M subtype B, UniProt P05919); details: halo of growth score between zero and six; XL1-blue E. coli with pPL-Vpu, no adenine, 37° C.
[2] = test system: MHV (strain MHV-A59); details: L929 cells
[3] = target: 229E-CoV E-protein (Human coronavirus 229E, UniProt P19741); assay: Bacterial bio-assay for 229E-CoV E-protein; details: halo of growth score; E. coli expressing E protein at 37° C.
[4] = target: SARS-CoV E protein (Severe acute respiratory syndrome coronavirus, UniProt P59637); assay type: cell-based

Structure (SMILES)	Vpu Inhibition (score/# of times tested) [1]	Percent reduction in Plaque number/# experiments ([2]; 1 uM)	Percent reduction in Plaque number/# experiments ([2]; 10 uM)	Percent reduction in Plaque number/# experiments ([2]; 20 uM)	229E E protein Inhibition (score) [3] [score]	SARS E protein Inhibition (score/# of times tested) [4]	Toxic (noted in place of plaque reduction) ([2]; 20 uM)
Cc1ccccc1/C=C/C(=O)NC(=N)N [2-methylcinnamoylguanidine]	3.1/2 score	20/1%	82/1%	91/1%	0.5	1.00/1 score	–
NC(N)=NC(=O)c1ccc2ccccc2c1 [2-napthoylguanidine]	2.7/11 score	34/2%	36/2%	67/2%	0.3	1.38/2 score	–
N=C(N)NC(=O)/C=C/c1ccc2ccccc2c1 [3-(2-napthyl)acryloylguanidine]	1.56/2 score	40/1%	93/1%	93/1%	3.0	3.88/1 score	–
N=C(N)NC(=O)/C=C/c1cccc(F)c1 [3-fluorocinnamoylguanidine]	1.9/2 score	31/1%	93/2%	100/1%	0.5	1.50/1 score	–
N=C(N)NC(=O)/C=C/c1cccc(-c2ccccc2)c1 [3-phenylcinnamoylguanidine]	2.54/3 score	64/3%	86/2%	–	2.9	3.13/1 score	Toxic
CC(C)(C)c1cccc(/C=C/C(=O)NC(=N)N)c1 [3-t-butylcinnamoylguanidine]	2.06/2 score	49/2%	94/3%	–	3.9	2.00/1 score	Toxic
N=C(N)NC(=O)/C=C/c1ccc(C(F)(F)F)cc1 [4-(trifluoromethyl)cinnamoylguanidine]	2.2/2 score	46/3%	95/3%	97/3%	2.3	2.75/1 score	–
CCOc1ccc(/C=C/C(=O)NC(=N)N)cc1 [4-ethoxycinnamoylguanidine]	0.69/2 score	40/1%	92/1%	96/1%	0.1	2.48/2 score	–
N=C(N)NC(=O)/C=C/c1ccc(F)cc1 [4-fluorocinnamoylguanidine]	1.1/2 score	20/1%	83/1%	86/1%	0.4	1.25/1 score	–
Cc1ccc(/C=C/C(=O)NC(=N)N)cc1 [4-methylcinnamoylguanidine]	2.1/2 score	20/1%	89/1%	93/1%	0.3	1.25/1 score	–
N=C(N)NC(=O)/C=C/c1ccc(-c2ccccc2)cc1 [4-phenylcinnamoylguanidine]	1.1/2 score	21/3%	36/1%	53/1%	1.0	2.75/2 score	–
N=C(N)NC(=O)/C=C/C=C/c1cccc(Br)c1 [5-(3′-bromophenyl)penta-2,4-dienoylguanidine]	2.5/2 score	66/1%	99/2%	–	0.3	0.5/1 score	–
NC(N)=NC(=O)c1nc(Cl)c(Nc2ccc(F)cc2)nc1N [5-(4-fluorophenyl)amiloride]	0.4/6 score	16/1%	25/1%	4/1%	1.8	1.38/1 score	–
CN(C)c1nc(N)c(C(=O)N=C(N)N)nc1Cl [5-(N,N-Dimethyl)amiloride hydrochloride]	0.1/2 score	17/4%	7/4%	42/4%	1.3	1.38/2 score	–
N=C(N)NC(=O)/C=C/c1cc(Br)ccc1F [5-bromo-2-fluorocinnamoylguanidine]	3.5/2 score	31/1%	81/2%	–	1.4	2.00/1 score	Toxic
CC(C)(C)Nc1nc(N)c(C(=O)N=C(N)N)nc1Cl [5-tert-butylamino-amiloride]	0.2/7 score	34/4%	84/4%	89/4%	0.3	2.01/2 score	–
COc1ccccc1/C=C/C(=O)NC(=N)N [(2-Methoxycinnamoyl)guanidine]	1.7/4 score	23/2%	85/2%	90/2%	1.1	0.69/2 score	–
N=C(N)NC(=O)/C=C/c1cccc(Cl)c1 [(3-Chlorocinnamoyl)guanidine]	4.38/4 score	39/2%	86/2%	94/1%	0.8	3.87/3 score	–
COc1cccc(/C=C/C(=O)NC(=N)N)c1 [(3-Methoxycinnamoyl)guanidine]	1.52/6 score	37/3%	87/2%	92/2%	1.4	0.63/2 score	–
N=C(N)NC(=O)/C=C/c1cccc([N+](=O)[O-])c1 [(3-Nitrocinnamoyl)guanidine]	0.9/1 score	42/3%	77/3%	95/2%	0.1	1.51/2 score	–
N=C(N)NC(=O)/C=C/c1ccc(O)cc1 [(4-Hydroxycinnamoyl)guanidine]	1.1/2 score	13/1%	15/1%	19/1%	0.6	1.63/2 score	–
COc1ccc(/C=C/C(=O)NC(=N)N)cc1 [(4-Methoxycinnamoyl)guanidine]	2.13/3 score	51/3%	96/4%	98/4%	0.1	0.88/2 score	–
NC(N)=NC(=O)c1ccc(Oc2ccccc2)cc1 [(4-Phenoxybenzoyl)guanidine]	0.81/2 score	32/1%	65/1%	73/1%	2.3	0.57/2 score	–
C/C(=C\c1ccccc1)C(=O)NC(=N)N [(a-Methylcinnamoyl)guanidine, (α-Methylcinnamoyl)guanidine]	0.6/2 score	51/2%	75/3%	81/2%	1.0	0.50/1 score	–
Cl.N=C(N)NC(=O)/C=C/c1ccccc1 [cinnamoylguanidine hydrochloride]	0.6/2 score	56/1%	72/2%	85/1%	0.5	2.50/1 score	–
